Measured values taken from the NIST ThermoML archive (doi:10.1016/j.jct.2012.06.009).
± gives the expanded uncertainty stated by the source.

Assay: activity coefficient (dimensionless); of the first substance listed, at infinite dilution; xn = mol fraction of the nth substance listed
Settings: 101 kPa, Liquid, Chromatography, x1 = 0

| Structure (SMILES) | activity coefficient (314.1 K) | activity coefficient (314.24 K) | activity coefficient (333.26 K) | activity coefficient (333.38 K) | activity coefficient (353.25 K) | activity coefficient (353.3 K) | further results |
| --- | --- | --- | --- | --- | --- | --- | --- |
| CC(C)=O [acetone] + CCCCCCCCCCCCCC(=O)O | 1.43 ± 0.12 | 1.46 ± 0.12 | 1.36 ± 0.11 | 1.35 ± 0.11 | 1.3 ± 0.11 | 1.27 ± 0.11 |  |
| CO [methanol] + CCCCCCCCCCCCCC(=O)O |  | 1.92 ± 0.17 | 1.73 ± 0.15 | 1.71 ± 0.15 |  | 1.56 ± 0.13 | activity coefficient (338.29 K): 2 ± 0.17; activity coefficient (358.31 K): 1.6 ± 0.14 |
| CCCO [propan-1-ol] + CCCCCCCCCCCC(=O)O | 1.76 ± 0.15 | 1.78 ± 0.15 | 1.57 ± 0.13 | 1.6 ± 0.14 | 1.43 ± 0.12 | 1.43 ± 0.12 |  |
| ClC=C(Cl)Cl [trichloroethene] + CCCCCCCCCCCC(=O)O | 0.952 ± 0.078 | 0.967 ± 0.079 | 0.944 ± 0.078 | 0.951 ± 0.078 | 0.933 ± 0.077 |  |  |
| CCO [ethanol] + CCCCCCCCCC(=O)O | 2.12 ± 0.18 | 2.07 ± 0.18 | 1.73 ± 0.15 | 1.78 ± 0.15 |  | 1.48 ± 0.12 |  |
| CCC(C)O (stereo unspecified) [butan-2-ol] + CCCCCCCCCCCC(=O)O | 1.28 ± 0.11 | 1.3 ± 0.11 |  | 1.17 ± 0.097 | 1.06 ± 0.088 | 1.08 ± 0.089 |  |
| ClC(Cl)Cl [trichloromethane] + CCCCCCCCCCCCCC(=O)O | 0.743 ± 0.063 | 0.743 ± 0.063 | 0.739 ± 0.063 | 0.74 ± 0.063 | 0.746 ± 0.064 | 0.727 ± 0.062 |  |
| CCCO [propan-1-ol] + CCCCCCCCCCCCCCCC(=O)O |  |  |  |  |  |  | activity coefficient (340.19 K): 1.74 ± 0.15; activity coefficient (348.01 K): 1.63 ± 0.14; activity coefficient (358.32 K): 1.5 ± 0.13 |
| COc1ccccc1 [anisole] + CCCCCCCCCCCCCCCC(=O)O |  |  |  |  |  |  | activity coefficient (340.19 K): 1.3 ± 0.11; activity coefficient (348.01 K): 1.28 ± 0.11; activity coefficient (358.22 K): 1.25 ± 0.1 |
| ClCc1ccccc1 [(chloromethyl)benzene] + CCCCCCCCCCCCCCCC(=O)O |  |  |  |  |  |  | activity coefficient (348.01 K): 1.62 ± 0.14; activity coefficient (358.22 K): 1.57 ± 0.13 |
| C=CCCCC [hex-1-ene] + CCCCCCCCCCCCCCCC(=O)O |  |  |  |  |  |  | activity coefficient (340.17 K): 1.17 ± 0.097; activity coefficient (348.01 K): 1.18 ± 0.098; activity coefficient (358.22 K): 1.2 ± 0.1 |
| C1CCCCC1 [cyclohexane] + CCCCCCCCCCCC(=O)O | 1.29 ± 0.11 | 1.28 ± 0.11 |  | 1.25 ± 0.1 | 1.2 ± 0.1 | 1.2 ± 0.1 |  |
| ClC(Cl)Cl [trichloromethane] + CCCCCCCCCCCCCCCC(=O)O |  |  |  |  |  |  | activity coefficient (340.19 K): 0.748 ± 0.063; activity coefficient (348.01 K): 0.739 ± 0.063; activity coefficient (358.22 K): 0.759 ± 0.064 |
| C1CCCCC1 [cyclohexane] + CCCCCCCCCCCCCC(=O)O | 1.09 ± 0.09 | 1.09 ± 0.09 |  | 1.07 ± 0.088 | 1.05 ± 0.087 | 1.02 ± 0.085 |  |
| CCO [ethanol] + CCCCCCCCCCCC(=O)O | 1.92 ± 0.17 | 2.02 ± 0.17 |  | 1.79 ± 0.15 | 1.56 ± 0.13 | 1.57 ± 0.13 |  |
| ClC=C(Cl)Cl [trichloroethene] + CCCCCCCCCCCCCC(=O)O | 0.847 ± 0.07 | 0.843 ± 0.07 | 0.842 ± 0.07 | 0.838 ± 0.07 | 0.842 ± 0.07 | 0.824 ± 0.069 |  |
| CCCCCC [hexane] + CCCCCCCCCCCCCC(=O)O |  |  |  |  |  |  | activity coefficient (338.27 K): 1.34 ± 0.11; activity coefficient (348.3 K): 1.33 ± 0.11; activity coefficient (358.33 K): 1.33 ± 0.11 |
| CCCCO [butan-1-ol] + CCCCCCCCCCCCCC(=O)O | 1.49 ± 0.13 | 1.54 ± 0.13 | 1.45 ± 0.12 | 1.42 ± 0.12 | 1.22 ± 0.11 | 1.32 ± 0.12 |  |
| Cc1ccccc1 [toluene] + CCCCCCCCCC(=O)O | 1.15 ± 0.095 | 1.17 ± 0.097 | 1.12 ± 0.093 | 1.12 ± 0.092 | 1.14 ± 0.095 | 1.16 ± 0.096 |  |
| CCc1ccccc1 [ethylbenzene] + CCCCCCCCCCCCCCCC(=O)O |  |  |  |  |  |  | activity coefficient (340.19 K): 1.04 ± 0.085; activity coefficient (348.01 K): 1.05 ± 0.086; activity coefficient (358.22 K): 1.06 ± 0.087 |
| Cc1ccccc1 [toluene] + CCCCCCCCCCCCCC(=O)O |  |  |  |  |  |  | activity coefficient (338.27 K): 0.926 ± 0.076; activity coefficient (338.29 K): 1.01 ± 0.083; activity coefficient (348.2 K): 0.958 ± 0.079; activity coefficient (358.33 K): 0.93 ± 0.077 |
